Results reported in PMC11240139, “Exploring the antitumor potential of novel quinoline derivatives via tubulin polymerization inhibition in breast cancer; design, synthesis and molecular docking” (RSC Advances, 2024).

What was measured:
Assay in all cases: NCI-60 SRB cytotoxicity screen
Type in all cases: cell-based
MCF7 (breast cancer) = details: Homo sapiens; MCF7, single dose 10 μM; read-out: growth inhibition (GI%)
T-47D (breast cancer) = details: Homo sapiens, T47D, single dose 10 μM, read-out: growth inhibition (GI%)
SK-MEL-5 (melanoma) = details: Homo sapiens; SK-MEL-5, single dose 10 μM; read-out: growth inhibition (GI%)
UACC-62 (melanoma) = details: Homo sapiens; UACC-62, single dose 10 μM; read-out: growth inhibition (GI%)
[1] = system: HOP-62 (non-small cell lung cancer); details: Homo sapiens; HOP-62, single dose 10 μM; read-out: growth inhibition (GI%)
SNB-19 (CNS cancer) = details: Homo sapiens; SNB-19, single dose 10 μM; read-out: growth inhibition (GI%)
HCT-116 (colon cancer) = details: Homo sapiens; HCT-116, single dose 10 μM; read-out: growth inhibition (GI%)
COLO 205 (colon cancer) = details: Homo sapiens; COLO 205, single dose 10 μM; read-out: growth inhibition (GI%)
RPMI-8226 (leukemia) = details: Homo sapiens; RPMI-8226, single dose 10 μM; read-out: growth inhibition (GI%)
HS 578T (breast cancer) = details: Homo sapiens, single dose 10 μM, read-out: growth inhibition (GI%)
KM12 (colon cancer) = details: Homo sapiens; KM12, single dose 10 μM; read-out: growth inhibition (GI%)
HL-60(TB) (leukemia) = details: Homo sapiens, single dose 10 μM, read-out: growth inhibition (GI%)
DU-145 (prostate cancer) = details: Homo sapiens; DU-145, single dose 10 μM; read-out: growth inhibition (GI%)
[2] = system: NCI-H23 (non-small cell lung cancer); details: Homo sapiens; NCI-H23, single dose 10 μM; read-out: growth inhibition (GI%)
IGROV1 (ovarian cancer) = details: Homo sapiens, IGROV-1; IGROV1, single dose 10 μM; read-out: growth inhibition (GI%)
RXF 393 (renal cancer) = details: Homo sapiens; RXF 393, single dose 10 μM; read-out: growth inhibition (GI%)
K-562 (leukemia) = details: Homo sapiens; K-652 [sic], single dose 10 μM; read-out: growth inhibition (GI%)
SK-MEL-28 (melanoma) = details: Homo sapiens; SK-MEL-28, single dose 10 μM; read-out: growth inhibition (GI%)
SR (leukemia) = details: single dose 10 μM, read-out: growth inhibition (GI%)
[3] = system: MDA-MB-468 (breast cancer); details: Homo sapiens; MDA-MB-468, single dose 10 μM; read-out: growth inhibition (GI%)
Method: The cytotoxic activity of the synthesized quinoline derivatives was determined by the national cancer institute (NCI, Bethesda, Maryland, USA) against 60 different cancer cell lines at a single high dose (10^−5 M) in the full NCI 60 cell panel using the sulforhodamine B assay for cell viability evaluation. In summary, 5 × 10^3 cells were in 96-well plate and incubated in complete media for 24 h. Cells were treated with 100 μL of media containing each newly synthesized compound. After drug exposure, cells were fixed by replacing media with 150 μL of 10% TCA and incubated at 4 °C for 1 h. The TCA solution was removed, and the cells were washed 5 times with distilled water. Aliquots of 70 μL SRB solution (0.4% w/v) were added and incubated in a dark place at room temperature for 10 min. The plates were washed 3 times with 1% acetic acid and allowed to air-dry overnight. Then, 150 μL of TRIS (10 mM) was added to dissolve protein-bound SRB stain. The absorbance was measured at 540 nm.% Cytotoxicity = [1 − (AVx/AVNC)] × 100where AVx denotes the average absorbance of the sample well and AVNC denotes the average absorbance of the negative control.
The methodology of the NCI anticancer screening has been described in details at (http://www.dtp.nci.nih.gov). The anticancer assay was performed in full NCI 60 cell lines derived from nine tumor subpanels, including leukemia, lung, colon, CNS, melanoma, ovarian, renal, prostate, and breast cancer cell lines.
The cell lines were first cultured for 48 h, after being exposed to a single dosage of the compound. Using the protein-binding dye sulforhodamine B dye, cell proliferation and viability were evaluated (SRB assay). The results were presented for each chemical as GI%. Compound that met NCI criteria for substantial activity were further evaluated using a five-dose experiment. The NCI60 cell lines were treated with the chemicals in this assay at five different concentration levels (0.01, 0.1, 1, 10, and 100 μM).

SF-268 (CNS cancer) = details: Homo sapiens; SF-268, single dose 10 μM; read-out: growth inhibition (GI%)
[4] = system: NCI-H522 (non-small cell lung cancer); details: Homo sapiens; NCI-H522, single dose 10 μM; read-out: growth inhibition (GI%)
BT-549 (breast cancer) = details: Homo sapiens; BT-549, single dose 10 μM; read-out: growth inhibition (GI%)
OVCAR-3 (ovarian cancer) = details: Homo sapiens; OVCAR-3, single dose 10 μM; read-out: growth inhibition (GI%)
HCC-2998 (colon cancer) = details: Homo sapiens; HCC-2998, single dose 10 μM; read-out: growth inhibition (GI%)

Structure (SMILES)	inhibition at 10 µM (MCF7 (breast cancer)) [%]	inhibition at 10 µM (T-47D (breast cancer)) [%]	inhibition at 10 µM (SK-MEL-5 (melanoma)) [%]	inhibition at 10 µM (UACC-62 (melanoma)) [%]	inhibition at 10 µM [1] [%]	inhibition at 10 µM (SNB-19 (CNS cancer)) [%]	inhibition at 10 µM (HCT-116 (colon cancer)) [%]	inhibition at 10 µM (COLO 205 (colon cancer)) [%]	inhibition at 10 µM (RPMI-8226 (leukemia)) [%]	inhibition at 10 µM (HS 578T (breast cancer)) [%]	inhibition at 10 µM (KM12 (colon cancer)) [%]	inhibition at 10 µM (HL-60(TB) (leukemia)) [%]	inhibition at 10 µM (DU-145 (prostate cancer)) [%]	inhibition at 10 µM [2] [%]	inhibition at 10 µM (IGROV1 (ovarian cancer)) [%]	inhibition at 10 µM (RXF 393 (renal cancer)) [%]	inhibition at 10 µM (K-562 (leukemia)) [%]	inhibition at 10 µM (SK-MEL-28 (melanoma)) [%]	inhibition at 10 µM (SR (leukemia)) [%]	inhibition at 10 µM [3] [%]	also measured
CCc1cccc2cc(C=CC(=O)c3cc(OC)c(OC)c(OC)c3)c(Cl)nc12 [Compound 3c, 3-(2-Chloro-8-ethylquinolin-3-yl)-1-(3,4,5-trimethoxyphenyl)prop-2-en-1-one]	70.9	72.8	39.9	41.9	< 10	66.4	61.6	18.4	78.2	< 10	80.7	73.5	29	27.4	< 10	42.6	68.1	15	61.5	61.1	inhibition at 10 µM (SF-268 (CNS cancer)): 32.2%; inhibition at 10 µM [4]: 80.7%; inhibition at 10 µM (BT-549 (breast cancer)): 76.1%; inhibition at 10 µM (OVCAR-3 (ovarian cancer)): > 100%; inhibition at 10 µM (HCC-2998 (colon cancer)): 63.8%
CCc1cccc2cc(-c3cc(-c4ccc(OC)cc4)[nH]c(=O)c3C#N)c(Cl)nc12 [Compound 4a, 4-(2-Chloro-8-ethylquinolin-3-yl)-6-(4-methoxyphenyl)-2-oxo-1,2-dihydropyridine-3-carbonitrile]	16	17.1	13.9	< 10	< 10	< 10	< 10	< 10	< 10	14.9	< 10	< 10	< 10	< 10	< 10	< 10	19.9	< 10	< 10	14	inhibition at 10 µM (SF-268 (CNS cancer)): 21.4%; inhibition at 10 µM [4]: 11.9%; inhibition at 10 µM (BT-549 (breast cancer)): 15.3%; inhibition at 10 µM (OVCAR-3 (ovarian cancer)): < 10%; inhibition at 10 µM (HCC-2998 (colon cancer)): < 10%
CCc1cccc2cc(-c3cc(-c4cc(OC)c(OC)c(OC)c4)[nH]c(=S)c3C#N)c(Cl)nc12 [Compound 5c, 4-(2-Chloro-8-ethylquinolin-3-yl)-2-thioxo-6-(3,4,5-trimethoxyphenyl)-1,2-dihydropyridine-3-carbonitrile]	46.5	60.6	52.2	33.5	10.6	39.1	27.1	12.7	63.1	32.7	37.2	51.8	32.3	33.7	33.4	37.3	33.9	< 10	49	50.5	inhibition at 10 µM (SF-268 (CNS cancer)): 31.7%; inhibition at 10 µM [4]: 65.7%; inhibition at 10 µM (BT-549 (breast cancer)): 21.1%; inhibition at 10 µM (OVCAR-3 (ovarian cancer)): 16.9%; inhibition at 10 µM (HCC-2998 (colon cancer)): 33%
